Assays:
human TLR7 = biological target: T1, human TLR7 (Homo sapiens, UniProt Q9NYK1); test: Human TLR7 agonist activity assay (hTLR7 reporter, HEK-Blue TLR7 cells, SEAP); format: cell-based; conditions: HEK-Blue TLR7 cells with SEAP reporter, 18 h treatment; average where assay performed multiple times
T1 construct: host or cells: HEK-Blue TLR7 cells (engineered human embryonic kidney cells)
T1 sequence (Q9NYK1 27-1049): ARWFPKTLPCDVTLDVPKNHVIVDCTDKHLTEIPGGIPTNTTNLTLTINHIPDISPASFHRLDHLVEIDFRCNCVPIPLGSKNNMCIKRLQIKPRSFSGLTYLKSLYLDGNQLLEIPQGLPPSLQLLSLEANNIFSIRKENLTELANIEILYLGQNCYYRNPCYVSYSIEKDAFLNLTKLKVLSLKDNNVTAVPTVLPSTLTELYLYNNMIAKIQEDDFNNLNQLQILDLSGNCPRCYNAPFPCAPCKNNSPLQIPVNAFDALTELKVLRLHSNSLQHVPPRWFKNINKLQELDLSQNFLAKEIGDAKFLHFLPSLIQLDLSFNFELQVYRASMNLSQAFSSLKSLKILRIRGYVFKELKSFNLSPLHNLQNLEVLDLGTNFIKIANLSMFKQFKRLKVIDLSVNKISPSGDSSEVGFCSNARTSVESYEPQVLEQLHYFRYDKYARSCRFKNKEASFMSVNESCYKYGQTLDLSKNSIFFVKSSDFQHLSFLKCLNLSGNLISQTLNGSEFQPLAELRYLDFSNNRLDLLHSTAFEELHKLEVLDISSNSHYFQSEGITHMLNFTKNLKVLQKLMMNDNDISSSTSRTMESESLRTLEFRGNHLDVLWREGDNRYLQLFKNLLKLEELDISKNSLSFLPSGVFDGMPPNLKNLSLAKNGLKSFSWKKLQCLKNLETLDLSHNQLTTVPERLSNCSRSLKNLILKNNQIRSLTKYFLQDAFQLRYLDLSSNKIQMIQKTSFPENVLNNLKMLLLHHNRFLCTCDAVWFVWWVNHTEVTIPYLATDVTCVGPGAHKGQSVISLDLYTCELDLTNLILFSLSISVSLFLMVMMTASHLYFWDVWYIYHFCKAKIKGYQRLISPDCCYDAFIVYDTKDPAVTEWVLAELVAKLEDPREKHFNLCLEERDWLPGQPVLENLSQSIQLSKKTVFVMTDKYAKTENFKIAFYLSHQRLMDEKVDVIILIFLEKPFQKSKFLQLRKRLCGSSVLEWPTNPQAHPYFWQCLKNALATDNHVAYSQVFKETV
Experimental: This procedure describes a method for assaying human TLR7 (hTLR7) agonist activity of the compounds disclosed in this specification.
HEK-Blue™ TLR7 cells were added to each well of a 384-well tissue-culture plate (15,000 cells per well) and incubated 16-18 h at 37° C., 5% CO2. Compounds (100 nl) were dispensed into wells containing the HEK-Blue™ TLR cells and the treated cells were incubated at 37° C., 5% CO2. After 18 h treatment ten microliters of freshly-prepared Quanti-Blue™ reagent (Invivogen) was added to each well, incubated for 30 min (37° C., 5% CO2) and SEAP levels measured using an Envision plate reader (OD=620 nm). The half maximal effective concentration values (EC50; compound concentration which induced a response halfway between the assay baseline and maximum) were calculated.

CD69 = test: Induction of CD69 in human whole blood (hWB); format: cell-based; conditions: 17 hrs at 37 C, CD69 surface staining, 100% set to 1 uM resiquimod, average where performed multiple times
Experimental: The induction of Type I interferon (IFN) MX-1 genes and the B-cell activation marker CD69 are downstream events that occur upon activation of the TLR7 pathway. The following is a human whole blood assay that measures their induction in response to a TLR7 agonist.
Heparinized human whole blood was harvested from human subjects and treated with test TLR7 agonist compounds at 1 mM. The blood was diluted with RPMI 1640 media and Echo was used to predot 10 nL per well giving a final concentration of 1 uM (10 nL in 10 uL of blood). After mixing on a shaker for 30 sec, the plates were covered and placed in a 37° C. chamber for o/n=17 hrs. Fixing/lysis buffer was prepared (5×→1× in H2O, warm at 37° C.; Cat #BD 558049) and kept the perm buffer (on ice) for later use.
For surface markers staining (CD69): prepared surface Abs: 0.045 ul hCD14-FITC (ThermoFisher Cat #MHCD1401)+0.6 ul hCD19-ef450 (ThermoFisher Cat #48-0198-42)+1.5 ul hCD69-PE (cat #BD555531)+0.855 ul FACS buffer. Added 3 ul/well, spin1000 rpm for 1 min and mixed on shaker for 30 sec, put on ice for 30 mins. Stop stimulation after 30 min with 70 uL of prewarmed 1× fix/lysis buffer and use Feliex mate to resuspend (15 times, change tips for each plate) and incubate at 37C for 10 min.
Centrifuge at 2000 rpm for 5 min aspirate with HCS plate washer, mix on shaker for 30 sec and then wash with 70 uL in dPBS and pelleted 2× s (2000 rpm for 5 min) and 50 ul wash in FACS buffer pelleted 1×s(2000 rpm for 5 min). Mix on shaker for 30 sec. For Intracellular markers staining (MX-1): Add 50 ul of BD Perm buffer III and mix on shaker for 30 sec. Incubate on ice for 30 min (in the dark). Wash with 50 uL of FACS buffer 2× (spin @2300 rpm×5 min after perm) followed by mixing on shaker for 30 sec. Resuspended in 20 ul of FACS buffer containing MX1 antibody ( )(4812)-Alexa 647: Novus Biologicals #NBP2-43704AF647) 20 ul FACS bf+0.8 ul hlgG+0.04 ul MX-1. Spin 1000 rpm for 1 min, mix on shaker for 30se and the samples were incubated at RT in the dark for 45 min followed by washing 2× FACS buffer (spin @2300 rpm×5 min after perm). Resuspend 20 ul (35 uL total per well) of FACS buffer and cover with foil and place in 4° C. to read the following day. Plates were read on iQuePlus. The results were loaded into toolset and IC50 curves are generated in curve master. The y-axis 100% is set to 1 uM of resiquimod.

Row | EC50 (human TLR7) [nM] | EC50 (CD69) [nM] | SMILES
1 | 28.8 |  | CCC[C@@H](CCO)Nc1nc(N)nc2cnn(Cc3ccc(CN4C[C@@H]5C[C@H]4CN5C(C)=O)cc3OC)c12 [Compound 101, 1-[(1S,4S)-5-({4-[(5-amino-7-{[(3S)-1-hydroxyhexan-3-yl]amino}-1H-pyrazolo[4,3-d]pyrimidin-1-yl)methyl]-3-methoxypheyl}-methyl)-2,5-diazabicyclo[2.2.1]-heptan-2-yl]ethan-1-one]
2 | 89.6 |  | CCCCNc1nc(N)nc2cnn(Cc3ccc(CN4C5CNCC4C5)cc3OC)c12 [Compound 102, N7-butyl-1-{[4-({3,6-diazabicyclo-[3.1.1]heptan-6-yl}methyl)-2-methoxyphenyl]methyl}-1H-pyrazolo-[4,3-d]pyrimidine-5,7-diamine]
3 | 27.8 |  | CCCCNc1nc(N)nc2cnn(Cc3ccc(CN4C[C@H]5CN(C)C[C@H]5C4)cc3OC)c12 [Compound 103, 1-[(4-{[(3aR,6aS)-5-methyl-octa-hydropyrrolo[3,4-c]pyrrol-2-yl]methyl}-2-methoxyphenyl)methyl]-N7-butyl-1H-pyrazolo[4,3-d]pyrimidine-5,7-diamine]
4 | 197 |  | CCCCNc1nc(N)nc2cnn(Cc3ccc(CN4C[C@H]5CCS(=O)(=O)[C@H]5C4)cc3OC)c12 [Compound 104, (3aR,6aR)-5-[(4-{[5-amino-7-(butyl-amino)-1H-pyrazolo[4,3-d]pyrimidin-1-yl]methyl}-3-methoxyphenyl)methyl]-hexahydro-2H-1λ6-thieno[2,3-c] pyrrole-1,1-dione]
5 | 20.7 | 4.2 | CCCCNc1nc(N)nc2cnn(Cc3ccc(CN4C[C@H]5C[C@@H]4CN5C)cc3OC)c12 [Compound 105, N7-butyl-1-[(2-methoxy-4-{[(1R,4R)-5-methyl-2,5-diaza-bicyclo[2.2.1]heptan-2-yl]methyl}-phenyl)methyl]-1H-pyrazolo[4,3-d]pyrimidine-5,7-diamine]
6 | 234 | 73.6 | COc1cc(CN2C[C@@H]3C[C@H]2CN3)ccc1Cn1ncc2nc(N)nc(NCc3cc(C)on3)c21 [Compound 106, 1-[(4-{[(1S,4S)-2,5-diazabicyclo-[2.2.1]heptan-2-yl]methyl}-2-methoxyphenyl)methyl]-N7-[(5-methyl-1,2-oxazol-3-yl)methyl]-1H-pyrazolo[4,3-d]pyrimidine-5,7-diamine]
7 | 5.3 |  | CCC[C@@H](CCO)Nc1nc(N)nc2cnn(Cc3ccc(CNC4[C@H]5COC[C@@H]45)cc3OC)c12 (stereo partly drawn) [Compound 107, (3S)-3-[(5-amino-1-{[2-methoxy-4-({[(1R,5S,6S)-3-oxabicyclo[3.1.0]-hexan-6-yl]amino}methyl)phenyl]-methyl}-1H-pyrazolo[4,3-d]pyrimidin-7-yl)amino]hexan-1-ol]
8 | 4.9 |  | CCC[C@@H](CCO)Nc1nc(N)nc2cnn(Cc3ccc(CN[C@H]4C[C@H]5COC[C@H]54)cc3OC)c12 [Compound 108, (3S)-3-[(5-amino-1-{[2-methoxy-4-({[(1R,5R,6S)-3-oxabicyclo-[3.2.0]heptan-6-yl]amino}methyl)phenyl]methyl}-1H-pyrazolo-[4,3-d]pyrimidin-7-yl)amino]hexan-1-ol]
9 | 2.2 |  | CCC[C@@H](CCO)Nc1nc(N)nc2cnn(Cc3ccc(CN4C[C@@H]5OCC[C@@H]54)cc3OC)c12 [Compound 109, (3S)-3-({5-amino-1-[(2-methoxy-4-{[(1S,5S)-2-oxa-6-azabicyclo-[3.2.0]heptan-6-yl]methyl}phenyl)-methyl]-1H-pyrazolo[4,3-d]pyrimidin-7-yl}amino)hexan-1-ol]
10 | 378 | 2 | CCCCNc1nc(N)nc2cnn(Cc3ccc(C(=O)N4C[C@H]5C[C@@H]4CN5C)cc3OC)c12 [Compound 110, N7-butyl-1-({2-methoxy-4-[(1R,4R)-5-methyl-2,5-diazabicyclo-[2.2.1]heptane-2-carbonyl]-phenyl}methyl)-1H-pyrazolo[4,3-d]pyrimidine-5,7-diamine]
11 | 16.4 | 11.1 | CCCCNc1nc(N)nc2cnn(Cc3ccc(C(=O)N4C[C@H]5CN(C)C[C@H]5C4)cc3OC)c12 [Compound 111, 1-({4-[(3aR,6aS)-5-methyl-octahydropyrrolo[3,4-c]pyrrole-2-carbonyl]-2-methoxyphenyl}-methyl)-N7-butyl-1H-pyrazolo[4,3-d]pyrimidine-5,7-diamine]
12 | 82 |  | CCC[C@@H](CCO)Nc1nc(N)nc2cnn(Cc3ccc(C(=O)N4C[C@H]5CN(C)C[C@H]5C4)cc3OC(F)F)c12 [Compound 124, (3S)-3-{[1-({4-[(3aR,6aS)-5-methyl-octahydropyrrolo[3,4-c]pyrrole-2-carbonyl]-2-(difluoromethoxy)-phenyl}methyl)-5-amino-1H-pyra-zolo[4,3-d]pyrimidin-7-yl]amino}-hexan-1-ol]
13 | 301 |  | CCC[C@@H](CCO)Nc1nc(N)nc2cnn(Cc3ccc(C(=O)N4C[C@H]5C[C@@H]4CN5C)cc3OC(F)F)c12 [Compound 125, (3S)-3-[(5-amino-1-{[2-(difluoro-methoxy)-4-[(1R,4R)-5-methyl-2,5-diazabicyclo[2.2.1]heptane-2-carbonyl]phenyl]methyl}-1H-pyrazolo[4,3-d]pyrimidin-7-yl)amino]hexan-1-ol]
14 | 287 |  | COc1cc(CNC23CC(C2)C3)ccc1Cn1ncc2nc(N)nc(NCc3cc(C)on3)c21 [Compound 126, 1-({4-[({bicyclo[1.1.1]pentan-1-yl}amino)methyl]-2-methoxy-phenyl}methyl)-N7-[(5-methyl-1,2-oxazol-3-yl)methyl]-1H-pyra-zolo[4,3-d]pyrimidine-5,7-diamine]
15 | 1230 |  | COc1cc(CN2C[C@@H]3C[C@H]2CN3CCO)ccc1Cn1nc(C)c2nc(N)nc(NCc3noc(C)n3)c21 [Compound 142, 2-[(1S,4S)-5-({4-[(5-amino-3-methyl-7-{[(5-methyl-1,2,4-oxadiazol-3-yl)methyl]amino}-1H-pyrazolo-[4,3-d]pyrimidin-1-yl)methyl]-3-methoxyphenyl}methyl)-2,5-diaza-bicyclo[2.2.1]heptan-2-yl]ethan-1-ol]
